Results reported in article PMC5593926, “Induction of high titred, non-neutralising antibodies by self-adjuvanting peptide epitopes derived from the respiratory syncytial virus fusion protein” (Scientific Reports, 2017).
“Also recorded” adds a separate entry of the source. Bridge positions count the residues as written; N and C are the ends. Square brackets hold non-standard residues; d marks the D form. I, II: the chains in the order shown. ξ: configuration not given here. ξGly(tetradecyl) = CCCCCCCCCCCCCCC(N)C(=O)O

Legend:
[1] = Particle size analysis by dynamic light scattering; assay type: physicochemical; details: 1% DMSO in PBS, 600 µg/ml, 25 °C, 173° backscattering, five replicates
Protocol: Peptides were dissolved in 1% DMSO in phosphate buffered saline (PBS) to a concentration of 600 µg/ml. Particle size was measured using a Zetasizer Nano ZP instrument (Malvern Instrument, UK) via M3-PALS technique with a 173° backscattering angle, at 25 °C. Measurement was performed in five replicates.

[2] = Secondary structure analysis by circular dichroism; assay type: physicochemical; details: 600 µg/ml; spectra not detected
Protocol: Conformational studies of constructs were performed using a J-710 spectropolarimeter (Jasco Corporation, Japan). Samples with 600 µg/ml concentration were transferred into a low volume quartz cuvette with 0.1 cm path length. CD spectra were analysed between 250 nm and 190 nm wavelengths. Measurements were performed in triplicate (reported as an average of readings). Spectral results are reported as mean residual ellipticity (θ) versus wavelength (nm).

[3] = biological target: Motavizumab (site II specific); assay: ELISA binding of Motavizumab to plate-coated vaccine constructs, one-site model; design: species or system human; details: serial dilution of antibody on ELISA plates coated with construct; saturation one-site specific binding model; read-out: Mota kD
Protocol: (§1) We further tested the ability of site II and site Ø specific antibodies (Motavizumab and D25, respectively) to recognise the peptides and LCP constructs. Dissociation constant (kD) values were derived from a saturation one-site model. D25 clearly recognised the ØLCP2 (66 ± 14 nM) but not ØLCP1 (Fig. 3A). In comparison, in our analysis D25 bound to the native pre-fusion RSV F (FDs-Cav1) with approximately […] stronger avidity (0.92 ± 0.08 nM). Motavizumab bound IILCP4 with the highest avidity (3.8 ± 0.9 nM), while in our analysis Motavizumab bound FDs-Cav1 with approximately 25 fold stronger avidity (0.15 ± 0.01 nM). Motavizumab also recognised IILCP3, 5, 6 and 7 and IIP5 (Fig. 3B). In general binding avidity was stronger for LCP constructs compared to original peptides.
Figure 3 Binding avidity of monoclonal antibodies against vaccine candidates. Antibody binding assessed by serial dilution of antibody on ELISA plates were coated with vaccine constructs and curve fitting by non-linear regression with a one site specific binding model using Graphpad Prism 7 software. (A) D25 antibody recognised ØLCP2 (kD: 66 ± 014 nM) and to a lesser extent ØP2 (kD: 720 ± 036nM). Binding to FDs Cav1 used as positive control (kD: 0.92 ± 00.08 nM). Motavizumab recognised IILCP4 (kD: 3.8 ± 00.9nM), IILCP5 (kD: 16 ± 03nM), IILCP7 (kD: 17 ± 011nM), IIP5 (kD: 23 ± 05nM) and to a lesser extent IILCP6 (kD: 40 ± 04nM). Binding FDs Cav1 was used as a positive control (kD: 0.15 ± 00.01nM).
(§2) An indirect enzyme-linked immunosorbent assay (ELISA) was used to determine the IgG antibody titre. Peptide antigens were used to coat 96-well plates (TITERTEK®) at a concentration of 5 μg/ml in 20 mM sodium carbonate buffer (pH 9.6), overnight at 4 °C. […] Plates were washed as above and secondary antibody binding was detected with the addition of 3,3′,5,5′-Tetramethylbenzidine (TMB) reagent (Thermo Fisher Scientific) at 50 µl/well. Reactions were stopped with 2M H2SO4 (25 µl/well) and absorbance was read at 450 nm on a SpectraMax® 190 (Molecular Devices) microplate reader.

[4] = test system: RSV; assay: RSV plaque reduction neutralisation test (PRNT); assay type: cell-based, RSV (A2); details: purified chimeric recombinant anti-F antibody, Vero cells
Protocol: Vero cells were seeded in 96-well tissue culture plates (Nunc®) at 4 × 10^4 cells/well in Opti-MEM supplemented with 3% FBS and 100 U penicillin with 100 μg/ml streptomycin. After overnight growth to allow a confluent monolayer, serial dilutions of virus stock were prepared in Opti-MEM (2% FBS and 100 U penicillin with 100 μg/ml streptomycin) and incubated at 37 °C, 5% CO2 for 1 h. Cell monolayers were inoculated with 50 μL of virus and incubated. After 1 h, the inoculum was replaced with overlay medium (Medium 199 with 3% methylcellulose, 2% FBS, 100 U penicillin with 100 μg/ml streptomycin) and incubated at 37 °C for 72 h. Overlay medium was aspirated and cells were fixed (80% acetone) and immunostained with a recombinant anti-RSV monoclonal antibody followed by IRDye® 800CW goat anti-mouse IgG, LI-COR Biosciences (1:2500). Plaques were read using Odyssey® Imager (LI-COR Biosciences) and titre was recorded as PFU/ml.
PRNT assays were performed as previously described. Briefly, pooled Sera was heat inactivated at 56 °C for 30 min. Dilutions of serum were combined with 50 PFU of RSV in serum free Opti-MEM and incubated at 37 °C for 1 h before applying to confluent monolayers of Vero cells in TC96-well plates. Cells were incubated with the serum-virus mixture at 37 °C for 1 h. Inoculum was aspirated and overlay medium was added and cells were incubated at 37 °C for 72 h. […]

[5] = test system: relevant antigen (peptide and LCP constructs); assay: IgG antibody titres in sera of immunised mice against the relevant antigen (ELISA); assay type: in vivo, C57BL/6 mice; details: 30 µg s.c. on day 0, 21, 28, 35, LCP in PBS with 1% DMSO, peptides mixed with PADRE and CFA, ELISA against matched antigen
Protocol: A total of 70 female C57BL/6 mice (6–8 weeks old) were purchased from the University of Queensland Biological Resources (UQBR), and housed in the AIBN animal house facility. All experimental procedures performed in this study were carried out in accordance with National Health & Medical Research Council guidelines and approved by The University of Queensland Animal Ethics Committee. Mice (n=5 per group) were injected subcutaneously at the tail base on day 0, 21, 28, 35 (Supplementary, Fig S15) with 30 µg of each construct in phosphate-buffered saline (PBS). 1% DMSO was included for LCP constructs to aid solubility. The negative control group were administered with 50 μl of PBS. Control groups included peptides (ØP1,2 and IIP3–5) physically mixed with PADRE (1:1) and emulsified in a total volume of 50 μl of complete Freund’s adjuvant (CFA)-PBS (1:1) for the first immunisation and PADRE-peptide mixture in PBS for subsequent immunisations. […]
as §2, with “titre.” for “titre. Peptide antigens were used to coat 96-well plates (TITERTEK®) at a concentration of 5 μg/ml in 20 mM sodium carbonate buffer (pH 9.6), overnight at 4 °C.”

[6] = test system: D25 antibody (site Ø specific); assay: ELISA binding of D25 antibody to plate-coated vaccine constructs, one-site model; design: species or system human; details: construct coated on plate
Protocol: as §1
Figure 3 Binding avidity of monoclonal antibodies against vaccine candidates. Antibody binding assessed by serial dilution of antibody on ELISA plates were coated with vaccine constructs and curve fitting by non-linear regression with a one site specific binding model using Graphpad Prism 7 software. […]
An indirect enzyme-linked immunosorbent assay (ELISA) was used to determine the IgG antibody titre. […] Plates were washed as above and secondary antibody binding was detected with the addition of 3,3′,5,5′-Tetramethylbenzidine (TMB) reagent (Thermo Fisher Scientific) at 50 µl/well. […]

Substance	Diameter DLS [1] [nm]	Kd [3] [nM]	antigen specific IgG response in sera (in words) [5]	other results
I: Ac-[ξGly(tetradecyl)][ξGly(tetradecyl)]LTNSELLSLINDMPITNDQKKLMSNNVQIVRQQS / II: Ac-AKFVAAWTLKAAAKSS[ξGly(tetradecyl)][ξGly(tetradecyl)]-NH2 (amide I:C-II:14) [IILCP7]	261±20	17 ± 11		aggregation under CD measurement condition [2]: aggregation
Motavizumab				neutralisation of RSV by purified antibody (in words) [4]: potent neutralisation
I: Ac-LTNSELLSLINDMPITNDQKKLMSNNVQIVRQQS / II: Ac-AKFVAAWTLKAAAKSS[ξGly(tetradecyl)][ξGly(tetradecyl)]-NH2 (amide I:C-II:14) [IILCP5]	181±25	16 ± 3	higher specific IgG titres; also recorded: robust antibody response	
Ac-LTNSELLSLINDMPITNDQKKLMSNNVQIVRQQS-NH2 [IIP5]		23 ± 5	higher specific IgG titres; also recorded: strong response	
KNYIDKQLLPIVNKQS [ØP1]				recognition by D25 (in words) [6]: Neither ØP1 nor ØLCP1 bound to D25
